Laboratory results reported in patent US11377473B2, “Albumin-binding prodrugs of auristatin E derivatives” (priority 2017, dated 2022).

How the values were obtained:
[1] = test system: NSCLC xenograft model LXFA737; assay: Human non-small cell lung cancer model LXFA737, large tumors; assay type: in vivo, NMRI nude mice
Excerpt: Mice were kept under a 14-hour light/10-hour dark, artificial light cycle. The animals were fed with autoclaved Teklad Global 19% Protein Extruded Diet (T.2019S.12) from Envigo RMS SARL and had access to sterile filtered and acidified (pH 2.5) tap water which was changed twice weekly. Feed and water were provided ad libitum. […] Animals were routinely monitored twice daily on working days and daily on Saturdays and Sundays. Starting on day 0, animals were weighed twice a week. Relative body weights (RBW) of individual animals were calculated by dividing the individual absolute body weight on day X (BWx) by the individual body weight on the day of randomization multiplied by 100%. […] Tumor volumes were calculated according to the following equation: […]
Statistical analysis was only carried out if at least 50% of the initially randomized animals in a relevant group were still alive. Comparisons between test groups were carried out for the same days. By convention, p-values ≤0.05 indicate significance of tumor inhibition. Statistical calculations were performed using GraphPad Prism bioanalytic software (San Diego Calif. USA, www.graphpad.com).
The evaluation of auristatin E and the albumin-binding auristatin E derivative AE-Keto-Sulf07 in a human non-small cell lung cancer model LXFA737 was carried out as described in the general procedure for patient-derived xenograft models.
Sample preparation: 51 mg weighed in a 100 mL vial dissolved in 36.5 mL 50/50 tert-butanol/10 mM sodium citrate buffer, 3% 2-HPßCD—pH 6.2; 2.4 mL were aliquoted in 4 mL vials.

[2] = test system: panel of 6 selected human cancer cell lines (LXFL 1674L, SW-620, CAL-27, RKO, MDA-MB-468, SK-OV-3); assay: IC50 determination in a panel of tumor cell lines (CellTiter-Blue Cell Viability assay); assay type: cell-based; details: geometric mean over six cell lines, 96 h treatment; read-out: Geometric mean IC50
Protocol: Samples were provided to Charles River Discovery Research Services Germany GmbH as frozen stock solutions in pharmaceutical grade DMSO (Sigma-Aldrich, Taufkirchen, Germany). On each day of the experiment, a frozen aliquot of stock solution was thawed. Subsequent serial dilutions were realized with complete RPMI 1640 cell culture medium using an intermediate dilution plate. 10 μL taken from the intermediate dilution plate were then transferred to 140 μL/well of the cell culture plate. Cells were treated with the test compounds at 10 concentrations in triplicate in half-log steps from 0.003 nM to 100 nM for a period of 96 h.
The compounds were tested in a panel of 6 selected human cancer cell lines by using CellTiter-Blue® Cell Viability assay (Promega, Mannheim, Germany). IC values are reported as absolute IC50 values, obtained for a test compound as the geometric mean of IC50 values over all cell lines tested.
The cell lines used were LXFL 1674L (established from patient-derived xenograft at Charles River Discovery Research Services Germany GmbH), SW-620 (kindly provided by the NCI, Bethesda, Md., USA), CAL-27 (purchased from DSMZ, Deutsche Sammlung von Mikroorganismen und Zellkulturen, Braunschweig, Germany), RKO, MDA-MB-468, and SK-OV-3 (from ATCC, American Type Culture Collection, Rockville, Md., USA). Authenticity of all cell lines was proven at the DSMZ by STR (short tandem repeat) analysis, a PCR based DNA-fingerprinting methodology. Cell lines were routinely passaged once or twice weekly and maintained in culture for up to 20 passages. Cells were grown at 37° C. in a humidified atmosphere with 5% CO2 in RPMI 1640 medium (25 mM HEPES, with L-glutamine, Biochrom, Berlin, Germany) supplemented with 10% (v/v) fetal calf serum (Sigma-Aldrich, Taufkirchen, Germany) and 0.1 mg/mL gentamicin (Life Technologies, Karlsruhe, Germany). The CellTiter-Blue® Cell Viability Assay was used according to manufacturer's instructions. Briefly, cells were harvested from exponential phase cultures, counted and plated in 96-well flat-bottom microtiter plates at a cell density of 4,000-10,000 cells/well depending on the cell line's growth rate. After a 24 h recovery period to allow the cells to resume exponential growth, 10 μL of culture medium (six control wells/plate) or of culture medium with test compound were added. The compounds were applied at 10 concentrations in triplicate in half-log increments up to 100 nM and cells were treated continuously for 96 h. […] Following an incubation period of up to 4 h, fluorescence (FU) was measured by using the Enspire Multimode Plate Reader (excitation λ=531 nm, emission λ=615 nm). IC50 values were determined with GraphPad Prism bioanalytic software (San Diego, Calif., USA).

| SMILES | side effects ([1]; 4.5 mg/kg 8 times twice weekly) | tumor response ([1]; 4.5 mg/kg 8 times twice weekly, day 15 until end of study on day 59) | p, antitumor efficacy versus auristatin E ([1]; 4.5 mg/kg versus auristatin E 0.3 mg/kg, 8 times twice weekly, day 28) | IC50 [2] | antitumor activity ([1]; 0.3 mg/kg 8 times twice weekly) |
| --- | --- | --- | --- | --- | --- |
| CC[C@H](C)[C@@H]([C@@H](CC(=O)N1CCC[C@H]1[C@H](OC)[C@@H](C)C(=O)N[C@H](C)C(=NNC(=O)c1ccc(NC(=O)CCCCCN2C(=O)C=CC2=O)cc1S(=O)(=O)O)c1ccccc1)OC)N(C)C(=O)[C@@H](NC(=O)[C@H](C(C)C)N(C)C)C(C)C [AE-Keto-Sulf07, 2-(2-((R)-2-((2R,3R)-3-((S)-1-((3R,4S,5S)-4-((S)-2-((S)-2-(dimethylamino)-3-methylbutanamido)-N,3-dimethylbutanamido)-3-methoxy-5-methylheptanoyl)pyrrolidin-2-yl)-3-methoxy-2-methylpropanamido)-1-phenylpropylidene)hydrazine-1-carbonyl)-5-(6-(2,5-dioxo-2,5-dihydro-1H-pyrrol-1-yl)hexanamido)benzenesulfonic acid] | No side effects were registered | partial tumor remission | < 0.01 | – | – |
| CC[C@H](C)[C@@H]([C@@H](CC(=O)N1CCC[C@H]1[C@H](OC)[C@@H](C)C(=O)N[C@H](C)[C@@H](O)c1ccccc1)OC)N(C)C(=O)[C@@H](NC(=O)[C@H](C(C)C)N(C)C)C(C)C [auristatin E] | – | – | – | 0.13 nM | did not show any activity |
